Test results as given in the supplement of paper PMC11451515.

Assays:
Details in all cases: 48 h
P12-Ichikawa [1] = assay: AUC of viability dose-response curve (% viability x log10 dose units); higher = less sensitive
Method in brief: (§1)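 Leukemia cells adapted to each medium were seeded in 1536-well plates (500 or 1000 cells/well). They were dosed with library compounds in DMSO at 11 threefold doses, 47 μM to 0.79 nM, for 48 h at 37°C. CellTiter-Glo One luminescence was normalised per plate to DMSO and cell-free wells. Area under the curve was integrated by trapezoidal rule over log10 doses on a four-parameter log-logistic fit; curves exceeding full viability were scaled and curves failing quality control removed.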

NOMO1 [2] = assay: as above
Method in brief: as §1

SEM cells [3] = assay: as above
Method in brief: as §1

P12-Ichikawa [4] = assay: cell viability relative to DMSO control; higher = less cytotoxic
Method in brief: (§2)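 Leukemia cells (NOMO1 or SEM, 500 cells/well; P12-Ichikawa, 1000 cells/well) were seeded in 5 μl in 1536-well plates after at least four passages of adaptation to each medium. They received library compounds in DMSO by pin dosing, 11 threefold points from 47 μM to 0.79 nM. Luminescence with CellTiter-Glo One was read after 48 h at 37°C. Viability is stated per plate relative to DMSO wells, with cell-free wells as background.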

NOMO1 [5] = assay: as above
Method in brief: as §2

SEM cells [6] = assay: as above
Method in brief: as §2

CC[P](CC)(CC)=[Au][S][C@@H]1O[C@H](COC(C)=O)[C@@H](OC(C)=O)[C@H](OC(C)=O)[C@H]1OC(C)=O
AUC of viability dose-response curve
Details | NOMO1 [2] | P12-Ichikawa [1] | SEM cells [3]
HPLM + 10% dialyzed FBS | 357 | 375 | 327
RPMI 5 mM glucose + 10% FBS | 344 | 339 | 336
RPMI 5 mM glucose + 10% dialyzed FBS | 354 | 331 | 315

cell viability [%]
Details | NOMO1 [5] | P12-Ichikawa [4] | SEM cells [6]
HPLM + 10% dialyzed FBS, 0.000781 µM | 118 | 122 | –
HPLM + 10% dialyzed FBS, 0.00234 µM | 121 | 108 | –
HPLM + 10% dialyzed FBS, 0.00702 µM | 119 | 116 | –
HPLM + 10% dialyzed FBS, 0.0211 µM | 109 | 109 | –
HPLM + 10% dialyzed FBS, 0.0632 µM | 120 | 115 | –
HPLM + 10% dialyzed FBS, 0.19 µM | 105 | 105 | –
HPLM + 10% dialyzed FBS, 0.569 µM | 115 | 110 | –
HPLM + 10% dialyzed FBS, 1.71 µM | 55.6 | 77.2 | –
HPLM + 10% dialyzed FBS, 5.12 µM | 9.31 | 23 | –
HPLM + 10% dialyzed FBS, 15.4 µM | 3.26 | 2.24 | –
HPLM + 10% dialyzed FBS, 46.1 µM | 2.08 | 1.8 | –
RPMI 5 mM glucose + 10% FBS, 0.000781 µM | 99.7 | 104 | 106
RPMI 5 mM glucose + 10% FBS, 0.00234 µM | 115 | 119 | 120
RPMI 5 mM glucose + 10% FBS, 0.00702 µM | 105 | 112 | 117
RPMI 5 mM glucose + 10% FBS, 0.0211 µM | 109 | 123 | 122
RPMI 5 mM glucose + 10% FBS, 0.0632 µM | 116 | 115 | 115
RPMI 5 mM glucose + 10% FBS, 0.19 µM | 87 | 103 | 108
RPMI 5 mM glucose + 10% FBS, 0.569 µM | 90.4 | 109 | 89.8
RPMI 5 mM glucose + 10% FBS, 1.71 µM | 26.9 | 9.37 | 5.13
RPMI 5 mM glucose + 10% FBS, 5.12 µM | 6.9 | 2.79 | 4.94
RPMI 5 mM glucose + 10% FBS, 15.4 µM | 2.16 | 2.08 | 3.95
RPMI 5 mM glucose + 10% FBS, 46.1 µM | 1.83 | 1.61 | 3.2
RPMI 5 mM glucose + 10% dialyzed FBS, 0.000781 µM | 95 | 117 | 111
RPMI 5 mM glucose + 10% dialyzed FBS, 0.00234 µM | 125 | 111 | 106
RPMI 5 mM glucose + 10% dialyzed FBS, 0.00702 µM | 111 | 117 | 93.8
RPMI 5 mM glucose + 10% dialyzed FBS, 0.0211 µM | 125 | 117 | 108
RPMI 5 mM glucose + 10% dialyzed FBS, 0.0632 µM | 102 | 114 | 106
RPMI 5 mM glucose + 10% dialyzed FBS, 0.19 µM | 114 | 105 | 113
RPMI 5 mM glucose + 10% dialyzed FBS, 0.569 µM | 108 | 96.3 | 103
RPMI 5 mM glucose + 10% dialyzed FBS, 1.71 µM | 48.9 | 3.62 | 5.2
RPMI 5 mM glucose + 10% dialyzed FBS, 5.12 µM | 11.6 | 2.8 | 5.93
RPMI 5 mM glucose + 10% dialyzed FBS, 15.4 µM | 3.14 | – | 4.45
RPMI 5 mM glucose + 10% dialyzed FBS, 46.1 µM | 1.73 | 1.1 | 2.9

COc1cc([S+](C)(=O)[O-])ccc1Nc1nc2ccc(-c3ccc(NC(=O)[C@H](C)c4ccc(F)cc4)cc3)cn2n1
AUC of viability dose-response curve
Details | NOMO1 [2] | P12-Ichikawa [1] | SEM cells [3]
HPLM + 10% dialyzed FBS | 430 | 396 | 377
RPMI 5 mM glucose + 10% FBS | 439 | 386 | 369
RPMI 5 mM glucose + 10% dialyzed FBS | 436 | 394 | 384

cell viability [%]
Details | NOMO1 [5] | P12-Ichikawa [4] | SEM cells [6]
HPLM + 10% dialyzed FBS, 0.000781 µM | 104 | 109 | 90.4
HPLM + 10% dialyzed FBS, 0.00234 µM | 120 | 106 | 87.8
HPLM + 10% dialyzed FBS, 0.00702 µM | 139 | 108 | 102
HPLM + 10% dialyzed FBS, 0.0211 µM | 146 | 110 | 89.2
HPLM + 10% dialyzed FBS, 0.0632 µM | 157 | 120 | 107
HPLM + 10% dialyzed FBS, 0.19 µM | 137 | 117 | 102
HPLM + 10% dialyzed FBS, 0.569 µM | 139 | 120 | 94.8
HPLM + 10% dialyzed FBS, 1.71 µM | 99.3 | 49 | 41.9
HPLM + 10% dialyzed FBS, 5.12 µM | 109 | 56.4 | 52.1
HPLM + 10% dialyzed FBS, 15.4 µM | 101 | 61.4 | 52.3
HPLM + 10% dialyzed FBS, 46.1 µM | 100 | 65 | 43.1
RPMI 5 mM glucose + 10% FBS, 0.000781 µM | 106 | 103 | 98
RPMI 5 mM glucose + 10% FBS, 0.00234 µM | 129 | 116 | 117
RPMI 5 mM glucose + 10% FBS, 0.00702 µM | 122 | 118 | 92.3
RPMI 5 mM glucose + 10% FBS, 0.0211 µM | 131 | 108 | 86.1
RPMI 5 mM glucose + 10% FBS, 0.0632 µM | 134 | 113 | 124
RPMI 5 mM glucose + 10% FBS, 0.19 µM | 123 | 117 | 108
RPMI 5 mM glucose + 10% FBS, 0.569 µM | 124 | 114 | 104
RPMI 5 mM glucose + 10% FBS, 1.71 µM | 92.4 | 37.2 | 41.2
RPMI 5 mM glucose + 10% FBS, 5.12 µM | 101 | 55.1 | 41.4
RPMI 5 mM glucose + 10% FBS, 15.4 µM | 94.9 | 56.4 | 34.6
RPMI 5 mM glucose + 10% FBS, 46.1 µM | 97.2 | 57.1 | 31
RPMI 5 mM glucose + 10% dialyzed FBS, 0.000781 µM | 114 | – | 88.4
RPMI 5 mM glucose + 10% dialyzed FBS, 0.00234 µM | 117 | – | 112
RPMI 5 mM glucose + 10% dialyzed FBS, 0.00702 µM | 123 | – | 108
RPMI 5 mM glucose + 10% dialyzed FBS, 0.0211 µM | 130 | – | 90.4
RPMI 5 mM glucose + 10% dialyzed FBS, 0.0632 µM | 120 | – | 136
RPMI 5 mM glucose + 10% dialyzed FBS, 0.19 µM | 136 | – | 99.1
RPMI 5 mM glucose + 10% dialyzed FBS, 0.569 µM | 129 | – | 98.1
RPMI 5 mM glucose + 10% dialyzed FBS, 1.71 µM | 92.7 | – | 53.9
RPMI 5 mM glucose + 10% dialyzed FBS, 5.12 µM | 96.3 | – | 50
RPMI 5 mM glucose + 10% dialyzed FBS, 15.4 µM | 96.1 | – | 48.2
RPMI 5 mM glucose + 10% dialyzed FBS, 46.1 µM | 88.8 | – | 43

Clc1ccc2c(N3CCN(CCCN4CCN(c5ccnc6cc(Cl)ccc56)CC4)CC3)ccnc2c1
AUC of viability dose-response curve
Details | NOMO1 [2] | P12-Ichikawa [1] | SEM cells [3]
HPLM + 10% dialyzed FBS | 469 | 456 | 464
RPMI 5 mM glucose + 10% FBS | 457 | 448 | 459
RPMI 5 mM glucose + 10% dialyzed FBS | 465 | 442 | 459

cell viability [%], SEM cells [6]
Details | HPLM + 10% dialyzed FBS | RPMI 5 mM glucose + 10% dialyzed FBS
0.000781 µM | 96.6 | 118
0.00234 µM | 111 | 131
0.00702 µM | 125 | 112
0.0211 µM | 102 | 120
0.0632 µM | 120 | 119
0.19 µM | 120 | 128
0.569 µM | 135 | 134
1.71 µM | 130 | 146
5.12 µM | 133 | 130
15.4 µM | 102 | 109
46.1 µM | 84.5 | 69.9
